Reference: patent publication US20110195929A1, “COMPOUNDS FOR THE TREATMENT OF FLAVIVIRAL INFECTIONS” (SUMMIT CORPORATION PLC, priority 2008, published 2011)

Tested on: HCV
Experiment: Cell-based HCV infection NS3 protease FRET assay in DMSO-Huh7 cells; further: test concentration or dose not given here
Set-up: species or system hepatitis C virus (HCV)
Conditions: not given

Row | Compound | Ave % inhibition
1 | C[C@@H]1CC[C@@H]2[C@@H](O)[C@H](O)[C@@H](CO)N12 [Compound 14, (1R,2R,3R,5R,7aR)-3-(hydroxymethyl)-5-methylhexahydro-1H-pyrrolizine-1,2-diol] | + (+: ≦19%)
2 | [O-][N@@+]12C[C@H](O)[C@H](O)[C@@H]1[C@@H](O)[C@H](O)[C@@H]2CO [Compound 81, (1R,2R,3S,4R,6S,7R,7aR)-1,2,6,7-tetrahydroxy-3-(hydroxymethyl)octahydropyrrolizine 4-oxide] | ++ (++: 20-39%)
3 | C[C@H]1C[C@@H](O)[C@@H]2[C@H](O)[C@H](O)[C@@H](CO)N21 [Compound 149, (1S,2R,3R,5S,7R,7aR)-3-(hydroxymethyl)-5-methylhexahydro-1H-pyrrolizine-1,2,7-triol] | ++ (++: 20-39%)
4 | OC[C@@H](O)[C@@H]1NC[C@H](O)[C@@H]1O [Compound 155, (2S,3R,4S)-2-((S)-1,2-dihydroxyethyl)pyrrolidine-3,4-diol] | ++ (++: 20-39%)
5 | O=C(O)[C@H]1C[C@H](O)CN1 [Compound 477, trans-4-Hydroxy-D-proline] | + (+: ≦19%)
6 | CCCCCCCCCN1C[C@H](O)[C@@H](O)[C@H](O)[C@H]1CO [Compound 550, (2R,3R,4R,5S)-2-(hydroxymethyl)-1-nonylpiperidine-3,4,5-triol] | ++ (++: 20-39%)

Same assay, conditions: DMSO-Huh7 cells infected with HCV at 0.05 ffu/cell; HCV NS3 protein levels by FRET, day 6 p.i.

Row | Compound | Ave % inhibition
7 | OC[C@H]1N[C@H](CO)[C@@H](O)[C@H](O)[C@H]1O [Compound 15, (2R,3S,4R,5R,6R)-2,6-bis(hydroxymethyl)piperidine-3,4,5-triol] | ++ (++: 20-39%)
8 | CCCC(=O)O[C@H]1CN2CC[C@H](O)C2[C@@H](O)[C@@H]1O (stereo partly drawn) [Compound 46, (1S,6S,7S,8R)-1,7,8-trihydroxyoctahydroindolizin-6-yl butyrate] | ++ (++: 20-39%)
9 | CC[C@@H]1NC[C@@H](O)[C@H](O)[C@H]1O [Compound 72, (2S,3S,4S,5R)-2-ethylpiperidine-3,4,5-triol] | ++ (++: 20-39%)
10 | O=C(O)[C@@]1(O)CNC[C@@H](O)[C@H]1O [Compound 87, (3R,4R,5R)-3,4,5-trihydroxypiperidine-3-carboxylic acid] | +++ (+++: 40-59%)
11 | CCCCN1C[C@H](O)[C@@H](O)[C@H](O)[C@H]1CO [Compound 118, (2R,3R,4R,5S)-1-butyl-2-(hydroxymethyl)piperidine-3,4,5-triol] | ++ (++: 20-39%)
12 | C[C@H]1N[C@@H](CO)[C@H](O)[C@H]1O [Compound 119, (2S,3S,4S,5R)-2-(hydroxymethyl)-5-methylpyrrolidine-3,4-diol] | ++ (++: 20-39%)
13 | CCCC(=O)OC[C@@H]1[C@@H](OC(=O)CCC)[C@H](OC(=O)CCC)[C@H]2[C@H](OC(=O)CCC)[C@@H](OC(=O)CCC)CN21 [Compound 132, (1R,2R,3R,6S,7S,7aR)-3-(butyryloxymethyl)hexahydro-1H-pyrrolizine-1,2,6,7-tetrayl tetrabutyrate] | ++ (++: 20-39%)
14 | CC(=O)OC[C@H]1[C@@H](OC(C)=O)[C@H](OC(C)=O)[C@H]2[C@H](OC(C)=O)[C@@H](OC(C)=O)CN21 [Compound 136, (1R,2R,3S,6S,7S,7aR)-3-(acetoxymethyl)hexahydro-1H-pyrrolizine-1,2,6,7-tetrayl tetraacetate] | ++ (++: 20-39%)
15 | CC(=O)OC[C@H]1[C@@H](OC(C)=O)[C@H](OC(C)=O)[C@H]2[C@@H](OC(C)=O)[C@@H](OC(C)=O)CN21 [Compound 144, (1R,2R,3S,6S,7R,7aR)-3-(acetoxymethyl)hexahydro-1H-pyrrolizine-1,2,6,7-tetrayl tetraacetate] | ++ (++: 20-39%)
16 | OCCN1C[C@@H](O)[C@@H](O)[C@H]1[C@H](O)CO [Compound 145, (2R,3S,4R)-2-((S)-1,2-dihydroxyethyl)-1-(2-hydroxyethyl)pyrrolidine-3,4-diol] | +++ (+++: 40-59%)
17 | O[C@@H]1[C@@H]2[C@@H](O)CCCN2C[C@@H]1O [Compound 153, (1R,2S,8S,8aS)-octahydroindolizine-1,2,8-triol] | ++ (++: 20-39%)
18 | CCCCN1C[C@H](O)[C@H](O)[C@@H]1CO [Compound 162, (2S,3R,4S)-1-butyl-2-(hydroxymethyl)pyrrolidine-3,4-diol] | ++ (++: 20-39%)
19 | CCCCN1C[C@@H](N=[N+]=[N-])C[C@H]1CO [Compound 275, ((2S,4S)-4-azido-1-butylpyrrolidin-2-yl)methanol] | ++ (++: 20-39%)
20 | CCCCCCCCCN1C[C@@H](O)[C@@H](O)[C@@H]1[C@@H](O)CO [Compound 316, (2S,3S,4R)-2-((R)-1,2-dihydroxyethyl)-1-nonylpyrrolidine-3,4-diol] | +++ (+++: 40-59%)
21 | CCCCCCCCCN1C[C@H](NC(C)=O)[C@@H](O)[C@@H]1CO [Compound 338, N-((3S,4R,5S)-4-hydroxy-5-(hydroxymethyl)-1-nonylpyrrolidin-3-yl)acetamide] | ++ (++: 20-39%)
22 | CCCCCCCCCN1C[C@@H](NC(C)=O)C[C@H]1CO [Compound 348, N-((3S,5S)-5-(hydroxymethyl)-1-nonylpyrrolidin-3-yl)acetamide] | ++++ (++++: 60-79%)
23 | CCCCCCCCCN1C[C@H](O)[C@H](O)[C@@H]1[C@@H](O)[C@H](O)CO [Compound 404, (1R,2R)-1-((2R,3R,4S)-3,4-dihydroxy-1-nonylpyrrolidin-2-yl)propane-1,2,3-triol] | +++ (+++: 40-59%)
24 | CCCCCCCCCN1C[C@@H](O)[C@@H](O)[C@@H]1[C@H](O)CO [Compound 427, (2S,3S,4R)-2-((S)-1,2-dihydroxyethyl)-1-nonylpyrrolidine-3,4-diol] | +++ (+++: 40-59%)

Row | Compound | Ave % inhibition
25 | CC1(C)O[C@H]2[C@H](CN(Cc3ccccc3)[C@@H]2CN)O1 [Compound 483, ((3aR,4R,6aS)-5-benzyl-2,2-dimethyltetrahydro-3aH-[1,3]dioxolo[4,5-c]pyrrol-4-yl)methanamine] | ++ (++: 20-39%)
26 | O=C(O)CCCN1C[C@@H](O)[C@H](O)[C@H]1CO [Compound 499, 4-[(2R,3R,4R)-3,4-dihydroxy-2-(hydroxymethyl)pyrrolidin-1-yl]butanoic acid] | ++ (++: 20-39%)
27 | OC[C@H]1[C@H](O)[C@@H](O)CN1Cc1ccccc1 [Compound 500, (2S,3S,4S)-1-benzyl-2-(hydroxymethyl)pyrrolidine-3,4-diol] | ++ (++: 20-39%)
28 | C[C@@]1(C(=O)O)NC[C@H](O)[C@H]1O [Compound 504, (2R,3S,4S)-3,4-dihydroxy-2-methylpyrrolidine-2-carboxylic acid] | ++ (++: 20-39%)
29 | [N-]=[N+]=NC[C@H]1[C@@H](O)[C@@H](O)CN1Cc1ccccc1 [Compound 506, (2S,3R,4S)-2-(azidomethyl)-1-benzylpyrrolidine-3,4-diol] | +++ (+++: 40-59%)
30 | CC(=O)NC[C@@H]1[C@@H](O)[C@@H](O)CN1CCCCCCCCCO [Compound 511, N-(((2R,3R,4S)-3,4-dihydroxy-1-(9-hydroxynonyl)pyrrolidin-2-yl)methyl)acetamide] | ++ (++: 20-39%)
31 | CCCCCCCCCN1C[C@H](O)[C@H](O)[C@H]1CNC(C)=O [Compound 512, N-(((2R,3R,4S)-3,4-dihydroxy-1-nonylpyrrolidin-2-yl)methyl)acetamide] | +++ (+++: 40-59%)
32 | O=C(O)CN1C[C@H](O)[C@H](O)[C@@H]1[C@@H](O)[C@H](O)[C@H](O)CO [Compound 530, 2-((2R,3R,4S)-3,4-dihydroxy-2-((1R,2S,3R)-1,2,3,4-tetrahydroxybutyl)pyrrolidin-1-yl)acetic acid] | ++ (++: 20-39%)
33 | OCCCCCCCCCN1[C@H](CO)[C@@H](O)[C@H](O)[C@H]1CO [Compound 557, (2R,3R,4R,5R)-2,5-bis(hydroxymethyl)-1-(9-hydroxynonyl)pyrrolidine-3,4-diol] | ++ (++: 20-39%)
34 | OC[C@@H]1[C@@H](O)[C@H](O)[C@@H](CO)N1Cc1ccc(-c2ccccc2)cc1 [Compound 558, (2R,3R,4R,5R)-1-(biphenyl-4-ylmethyl)-2,5-bis(hydroxymethyl)pyrrolidine-3,4-diol] | +++ (+++: 40-59%)
35 | OC[C@@H]1[C@@H](O)[C@H](O)[C@@H](CO)N1Cc1ccc(-c2ccccc2)cc1 [Compound 559, (2R,3R,4R,5R)-1-(biphenyl-4-ylmethyl)-2,5-bis(hydroxymethyl)pyrrolidine-3,4-diol] | ++++ (++++: 60-79%)
36 | C[C@@H](N)CCC[C@@H]1N[C@@H](CO)[C@H](O)[C@H]1O [Compound 561, (2S,3S,4S,5S)-2-((R)-4-aminopentyl)-5-(hydroxymethyl)pyrrolidine-3,4-diol] | ++++ (++++: 60-79%)
37 | C[C@H](N)CCC[C@@H]1N[C@@H](CO)[C@H](O)[C@H]1O [Compound 562, (2S,3S,4S,5S)-2-((S)-4-aminopentyl)-5-(hydroxymethyl)pyrrolidine-3,4-diol] | ++++ (++++: 60-79%)
38 | CC(=O)N[C@@H]1CNC[C@@H](O)[C@H]1O [Compound 563, N-((3R,4S,5R)-4,5-dihydroxypiperidin-3-yl)acetamide] | ++++ (++++: 60-79%)
39 | CCCCCCCCCN1C[C@H](O)[C@H](O)[C@@H]1CNC(C)=O [Compound 587, N-(((2S,3R,4S)-3,4-dihydroxy-1-nonylpyrrolidin-2-yl)methyl)acetamide] | +++ (+++: 40-59%)
40 | CC(=O)NC[C@H]1[C@@H](O)[C@@H](O)CN1CCN1CCCCC1 [Compound 616, N-(((2S,3R,4S)-3,4-dihydroxy-1-(2-(piperidin-1-yl)ethyl)pyrrolidin-2-yl)methyl)acetamide] | ++ (++: 20-39%)
41 | CCCCCCCCCN1C[C@H](O)[C@H](O)[C@@H]1CNC(=O)c1ccccc1 [Compound 622, N-(((2S,3R,4S)-3,4-dihydroxy-1-nonylpyrrolidin-2-yl)methyl)benzamide] | +++++ (+++++: ≧80%)
42 | OC[C@H]1[C@H](O)[C@H](O)CN1Cc1ccc(-c2ccccc2)cc1 [Compound 623, (2S,3S,4R)-1-(biphenyl-4-ylmethyl)-2-(hydroxymethyl)pyrrolidine-3,4-diol] | ++ (++: 20-39%)
